Source: patent publication US11753408B2, “Compounds and method for blocking transmission of malarial parasite” (The United States of America, as represented by the …, priority 2016, dated 2023)

Columns and labels:
[1] = Microsomal stability (rat); type: in vitro ADME; settings: rat microsomes
mTOR = mTOR (Homo sapiens, UniProt P42345); assay: mTOR activity (no method described); type: biochemical
Solubility at pH 7.4 = type: physicochemical
PAMPA permeability = type: in vitro ADME
[2] = tested on: Asexual parasites of P. falciparum strain 3D7; assay: In vitro drug activity on asexual parasites (SYBR Green assay); type: cell-based, Plasmodium falciparum
How it was run: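 3D7 parasites at 0.5% parasitemia and 2% hematocrit were exposed to drugs (DMSO ≤0.5%) for 72 h under standard culture conditions, in duplicate. After freeze-thaw lysis, SYBR Green I lysis buffer was added for 30 min at room temperature, and fluorescence was read at 490/520 nm.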

| Microsomal Stability (rat) T1/2 [1] [min] | mTOR (mTOR) [µM] | Sol @ pH 7.4 (Solubility at pH 7.4) [ug/mL] | PAMPA Permeability (PAMPA permeability) [×10⁻⁶ cm/s] | EC50 [2] [nM] | SMILES |
| --- | --- | --- | --- | --- | --- |
| 6.3 | 0.7638 | <1 | 492 | 178 | O=C(NCCN1CCOCC1)c1ccc(-n2c(=O)ccc3cnc4ccc(-c5ccc(Cl)cc5)cc4c32)cc1 [Compound 215] |
| 6.7 | 0.8321 | <1 | 1.1 | 42.2 | CCNC(=O)c1ccc(-n2c(=O)ccc3cnc4ccc(-c5ccc(Cl)cc5)cc4c32)cc1 [Compound 216] |
| 12.6 | 4.247 | 9.4 | 127 | 156 | O=C(NCCN1CCCC1)c1ccc(-n2c(=O)ccc3cnc4ccc(-c5ccc(Cl)cc5)cc4c32)cc1 [Compound 220] |
| 18 | 0.8505 | <1 | 364 | 22.7 | O=C(NC1COC1)c1ccc(-n2c(=O)ccc3cnc4ccc(-c5ccc(Cl)cc5)cc4c32)cc1 [Compound 231] |
| >30 | 1.065 | 9.2 | 7.6 | 53.4 | O=C(NC1CNC1)c1ccc(-n2c(=O)ccc3cnc4ccc(-c5ccc(Cl)cc5)cc4c32)cc1 [Compound 232] |
| >30 | 6.306 | >76 | 155 | 162 | O=C(NC1CC1)c1ccc(-n2c(=O)ccc3cnc4ccc(-c5ccc(CN6CCCC6)cc5)cc4c32)cc1 [Compound 233] |
| >30 | 0.2148 | <1 | 439 | 56.8 | Nc1cc(-c2ccc3ncc4ccc(=O)n(-c5ccc(C(=O)NC6CC6)cc5)c4c3c2)ccc1Cl [Compound 238] |
| >30 | 0.2422 | <1 | 79.9 | 17.5 | NC(=O)c1ccc(-n2c(=O)ccc3cnc4ccc(-c5ccc(Cl)cc5)cc4c32)cc1 [Compound 239] |
| >30 | 0.4436 | 31.6 | < 1 | 52.9 | NCCc1ccc(-c2ccc3ncc4ccc(=O)n(-c5ccc(C(=O)NC6CC6)cc5)c4c3c2)cc1 [Compound 240] |
| >30 | 6.061 | >74 | 18.6 | 335 | CN(C)CCc1ccc(-c2ccc3ncc4ccc(=O)n(-c5ccc(C(=O)NC6CC6)cc5)c4c3c2)cc1 [Compound 241] |
| >30 | 0.6459 | >72 | 1.5 | 1260 | CC(C)(N)c1ccc(-c2ccc3ncc4ccc(=O)n(-c5ccc(C(=O)NC6CC6)cc5)c4c3c2)cc1 [Compound 246] |

The next lines start with the compound.

| SMILES | Microsomal Stability (rat) T1/2 [1] [min] | mTOR (mTOR) [µM] | Sol @ pH 7.4 (Solubility at pH 7.4) [ug/mL] | PAMPA Permeability (PAMPA permeability) [×10⁻⁶ cm/s] | EC50 [2] [nM] |
| --- | --- | --- | --- | --- | --- |
| O=C(c1ccc(-n2c(=O)ccc3cnc4ccc(-c5ccc(CCN6CCCC6)cc5)cc4c32)cc1)N1CCOCC1 [Compound 217] | >30 | 17.83 | >83 | 130 | 531 |
| CN(C)CC#Cc1ccc2ncc3ccc(=O)n(-c4ccc(C(=O)N5CCOCC5)cc4)c3c2c1 [Compound 218] | >30 | 16.25 | >69 | 100 | 1680 |
| O=C(c1ccc(-n2c(=O)ccc3cnc4ccc(-c5ccc(OC6CCNCC6)cc5)cc4c32)cc1)N1CCOCC1 [Compound 219] | >30 | 3.288 | 6.3 | 3.3 | 371 |
| COc1cc(-c2ccc3ncc4ccc(=O)n(-c5ccc(C(=O)NC6CC6)cc5)c4c3c2)ccc1Cl [Compound 221] | 22.2 | 1.504 | <1 | 133 | 45.5 |
| Cc1cc(C(=O)NC2CC2)ccc1-n1c(=O)ccc2cnc3ccc(-c4ccc(F)c(O)c4)cc3c21 [Compound 222] | 27.2 | 0.8206 | 7.1 | 758 | 22.8 |
| Cc1cc(C(=O)NC2CC2)ccc1-n1c(=O)ccc2cnc3ccc(-c4ccc(Cl)c(O)c4)cc3c21 [Compound 225] | 23.3 | 0.9169 | <1 | 735 | 19.8 |
| Cc1nc2ccc(-c3ccc(Cl)cc3)cc2c2c1ccc(=O)n2-c1ccc(C(=O)N2CCOCC2)cc1 [Compound 234] | 1.4 | 18.92 | <1 | 874 | 2220 |
| O=C(c1ccc(-n2c(=O)ccc3c(F)nc4ccc(-c5ccc(Cl)cc5)cc4c32)cc1)N1CCOCC1 [Compound 235] | 3.4 | 100 | <1 | 564 | 24400 |
| O=C(c1ccc(-n2c(=O)ccc3c[n+]([O-])c4ccc(-c5ccc(Cl)cc5)cc4c32)cc1)N(CCO)CCO [Compound 236] | >30 | 50 | >78 | < 1 | 1200 |
| O=C(O)c1ccc(-n2c(=O)ccc3c(O)nc4ccc(-c5ccc(Cl)cc5)cc4c32)cc1 [Compound 237] | >30 | 100 | >65 | 3.3 | 39500 |
| O=C(c1ccc(-n2c(=O)ccc3cnc4ccc(-c5ccc6c(c5)CNC6)cc4c32)cc1)N1CCOCC1 [Compound 242] | >30 | 0.373 | >74 | < 1 | 489 |
| CCN(CC)Cc1ccc(-c2ccc3ncc4ccc(=O)n(-c5ccc(C(=O)NC6CC6)cc5)c4c3c2)cc1 [Compound 243] | >30 | 14.6 | >76 | 382 | 677 |
| CN1Cc2ccc(-c3ccc4ncc5ccc(=O)n(-c6ccc(C(=O)N7CCOCC7)cc6)c5c4c3)cc2C1 [Compound 244] | >30 | 7.873 | >76 | 216 | 1640 |
| N#Cc1ccc2ncc3ccc(=O)n(-c4ccc(C(=O)N5CCOCC5)cc4)c3c2c1 [Compound 245] | >30 | 10.41 | >61 | 11.7 | 3820 |
| Cc1cc(C(=O)NC2CC2)ccc1-n1c(=O)ccc2cnc3ccc(-c4ccc(Cl)cc4)nc3c21 [Compound 247] | 16.7 | 1.903 | <1 | 846 | 81.8 |
| CCN(CC)CCNC(=O)c1ccc(-n2c(=O)ccc3cnc4ccc(-c5ccc(Cl)cc5)cc4c32)c(OC)c1 [Compound 249] | 7.9 | 14.76 | >82 | 1070 | 576 |
| COc1cc(C(=O)NC2CCN(CCN(C)C)CC2)ccc1-n1c(=O)ccc2cnc3ccc(-c4ccc(Cl)cc4)cc3c21 [Compound 250] | >30 | 2.911 | 9.5 | 14.3 | 549 |
| COc1cc(C(=O)NCCN(C)c2ccccc2)ccc1-n1c(=O)ccc2cnc3ccc(-c4ccc(Cl)cc4)cc3c21 [Compound 251] | 1.3 | 100 | <1 | < 1 | 2370 |
| COc1cc(C(=O)NCCN2CCC2)ccc1-n1c(=O)ccc2cnc3ccc(-c4ccc(Cl)cc4)cc3c21 [Compound 253] | >30 | 8.463 | >80 | 353 | 258 |
| COc1cc(C(=O)NC2CCN(CCO)CC2)ccc1-n1c(=O)ccc2cnc3ccc(-c4ccc(Cl)cc4)cc3c21 [Compound 254] | >30 | 3.012 | 53.1 | 5.7 | 206 |
| COc1cc(C(=O)NCCCN2CCC(C)CC2)ccc1-n1c(=O)ccc2cnc3ccc(-c4ccc(Cl)cc4)cc3c21 [Compound 255] | 2.3 | 12.95 | >88 | 1040 | 182 |
| COc1cc(C(=O)NCCN2CCCCC2)ccc1-n1c(=O)ccc2cnc3ccc(-c4ccc(Cl)cc4)cc3c21 [Compound 256] | 3.5 | 8.776 | <1 | 664 | 501 |
| COc1cc(C(=O)NCCN2CCNCC2)ccc1-n1c(=O)ccc2cnc3ccc(-c4ccc(Cl)cc4)cc3c21 [Compound 257] | >30 | 2.719 | >84 | 1.5 | 60.8 |
